Data published in PMC3064895 (Cancer Chemotherapy and Pharmacology, 2010).
“And” between values parts separate entries of the source, which are not always exact repeats. Identical values can stand only once. “Also recorded” adds a separate entry of the source.

Key:
[1] = Left ventricular ejection fraction; type: in vivo, patients with advanced cancer; settings: for Mean (SD) change from baseline in LVEF(%): sorafenib 400 mg bid
[2] = Supine blood pressure and heart rate; type: in vivo, patients with advanced cancer; settings: for Mean (SD) maximal change from baseline in supine HR / Mean (SD) maximal change from baseline in supine diastolic BP / Mean (SD) maximal change from baseline in supine systolic BP: over 12-h period; for Mean increase from baseline in diastolic BP, individual patient / Mean increase from baseline in systolic BP, individual patient: patient with confirmed PR
[3] = observational study by Schmidinger et al.; cited from earlier work
[4] = Plasma pharmacokinetics at steady state of sorafenib; type: in vivo, patients with advanced cancer; settings: for AUC / Cmax: geometric mean (% CV); for AUC: AUC(0–12), n = 14; for Cmax: C max
[5] = Day 1 of cycle 2, listed as Sorafenib
[6] = human, plasma, oral, 400 mg, plasma, Day 1 of cycle 2, sorafenib 400 mg bid
[7] = human, plasma, oral, 400 mg, plasma, Day 1 of cycle 5, sorafenib 400 mg bid
[8] = plasma, Day 1 of cycle 2, sorafenib 400 mg bid
[9] = plasma, Day 1 of cycle 5, sorafenib 400 mg bid

SMILES: CNC(=O)c1cc(Oc2ccc(NC(=O)Nc3ccc(Cl)c(C(F)(F)F)c3)cc2)ccn1 [sorafenib]
- Mean (SD) change from baseline in LVEF(%) ([1]; primary analysis population, Day 1 of cycle 5 (after 4 cycles)): −1.2 (±7.8) LVEF(%) and −1.2 LVEF(%)
- Mean (SD) change from baseline in LVEF(%) ([1]; primary analysis population, Day 1 of cycle 5 (after 4 cycles), listed as Sorafenib): −1.2 (7.8) LVEF(%)
- Patients with decrease from baseline of ≥10 LVEF(%) ([1]; primary group, after 2 cycles): 12.9% and 13%
- Patients with decrease from baseline of ≥10 LVEF(%) ([1]; primary group, after 4 cycles): 4%
- Mean decline in LVEF(%) ([1]; primary patient group (n = 24), after 4 cycles): 1.2 LVEF(%)
- Mean (SD) change from baseline in LVEF(%) ([1]; secondary analysis population, Day 1 of cycle 3 (after 2 cycles)): −1.0 (8.5) LVEF(%)
- Mean (SD) change from baseline in LVEF(%) ([1]; secondary analysis population, Day 1 of cycle 5 (after 4 cycles)): −1.4 (9.4) LVEF(%)
- Patients with decrease from baseline of ≥10 LVEF(%) ([1]; secondary group, after 2 cycles): 12.0%
- Patients with decrease from baseline of ≥10 LVEF(%) ([1]; secondary group, after 4 cycles): 7.1%
- Mean decline in LVEF(%) ([1]; secondary patient group (n = 14), after 4 cycles): 1.4 LVEF(%)
- Mean decline in LVEF(%) ([1]; secondary patient group (n = 25), after 2 cycles): 1.0 LVEF(%)
- Largest individual decrease in ejection fraction ([1]; single patient without clinical signs of CHF): −24.8 LVEF[%]
- LVEF measurement, individual patient ([1]; thymic cancer patient (baseline 72%), repeat ECHO scan (+3 days)): 60–65%
- Mean (SD) change from baseline in supine HR ([2]; 2 h post-dose, Day 1 of cycle 2): −5.4 (9.2) bpm
- Mean (SD) change from baseline in supine HR ([2]; 2 h post-dose, Day 1 of cycle 5): −0.03 (7.1) bpm
- Mean (SD) change from baseline in supine HR ([2]; 4 h post-dose, Day 1 of cycle 2): −4.0 (8.8) bpm
- Mean (SD) change from baseline in supine HR ([2]; 4 h post-dose, Day 1 of cycle 5): 0.1 (9.2) bpm
- Mean (SD) change from baseline in supine HR ([2]; 6 h post-dose, Day 1 of cycle 2): −6.0 bpm
- Mean (SD) change from baseline in supine HR ([2]; 6 h post-dose, Day 1 of cycle 2, listed as Sorafenib): −6.0 (8.9) bpm
- Mean (SD) change from baseline in supine HR ([2]; 6 h post-dose, Day 1 of cycle 5): 0 (8.7) bpm
- Mean (SD) change from baseline in supine HR ([2]; 8 h post-dose, Day 1 of cycle 2): −4.2 (11.3) bpm
- Mean (SD) change from baseline in supine HR ([2]; 8 h post-dose, Day 1 of cycle 5): 0.7 (8.6) bpm
- Mean (SD) change from baseline in supine HR ([2]; 12 h post-dose, Day 1 of cycle 2): −5.8 (13.3) bpm
- Mean (SD) change from baseline in supine HR ([2]; 12 h post-dose, Day 1 of cycle 5): 1.6 (10.0) bpm
- Patients with BP ≥150/90 mm Hg at t max ([2]; Day 1 of cycle 5, sorafenib 400 mg bid): 2 n (%)
- Mean (SD) change from baseline in supine HR ([2]; Pre-dose, Day 1 of cycle 2): −4.4 (8.1) bpm
- Mean (SD) change from baseline in supine HR ([2]; Pre-dose, Day 1 of cycle 5): −2.9 (10.0) bpm
- Patients who exceeded 150/90 mm Hg (both systolic and diastolic) ([2]; after 1 cycle): Four
- Patients who exceeded a systolic reading of 150 mm Hg only ([2]; after 1 cycle): 4 patients
- Patients with a diastolic reading surpassing 90 mm Hg only ([2]; after 1 cycle): 2 patients
- Patients who had become hypertensive ([2]; after 1 cycle (6% at baseline)): Thirty-two
- Increase in both systolic and diastolic BP at t max ([2]; after both 1 and 4 cycles): 11–12 mm Hg
- Patients hypertensive ([2]; at cycle 4): 13%
- Mean (SD) change from baseline in supine HR ([2]; at t max, Day 1 of cycle 2): −6.6 bpm
- Mean (SD) change from baseline in supine HR ([2]; at t max, Day 1 of cycle 2, listed as Sorafenib): −6.6 (10.6) bpm
- Mean (SD) change from baseline in supine HR ([2]; at t max, Day 1 of cycle 5): −3.3 bpm
- Mean (SD) change from baseline in supine HR ([2]; at t max, Day 1 of cycle 5, listed as Sorafenib): −3.3 (7.3) bpm
- Patients who started receiving antihypertensive medications during treatment ([2]; during treatment with sorafenib): Three
- Mean (SD) maximal change from baseline in supine HR ([2]; Day 1 of cycle 2): 2.9 (±8.2) bpm
- Mean (SD) maximal change from baseline in supine diastolic BP ([2]; Day 1 of cycle 2): 19.8 (±9.0) mm Hg
- Mean (SD) maximal change from baseline in supine systolic BP ([2]; Day 1 of cycle 2): 27.7 (±18.5) mm Hg
- Mean (SD) maximal change from baseline in supine HR [2, 5]: 2.9 (8.2) bpm
- Mean (SD) maximal change from baseline in supine diastolic BP [2, 5]: 19.8 (9.0) mm Hg
- Mean (SD) maximal change from baseline in supine systolic BP [2, 5]: 27.7 (18.5) mm Hg
- Mean (SD) maximal change from baseline in supine HR ([2]; Day 1 of cycle 5): 8.3 (±6.8) bpm
- Mean (SD) maximal change from baseline in supine diastolic BP ([2]; Day 1 of cycle 5): 22.0 (11.2) mm Hg
- Mean (SD) maximal change from baseline in supine systolic BP ([2]; Day 1 of cycle 5): 24.8 (14.4) mm Hg
- Mean (SD) maximal change from baseline in supine HR ([2]; Day 1 of cycle 5, listed as Sorafenib): 8.3 (6.8) bpm
- Mean increase from baseline in diastolic BP, individual patient ([2]; after 1 cycle): 31.0 mm Hg
- Mean increase from baseline in systolic BP, individual patient ([2]; after 1 cycle): 44.5 mm Hg
- Mean increase from baseline in diastolic BP, individual patient ([2]; after 4 cycles): 40.8 mm Hg
- Mean increase from baseline in systolic BP, individual patient ([2]; after 4 cycles): 29.3 mm Hg
- Incidence of ≥10 LVEF(%) reduction [3]: 5%
- Tmax ([4]; human, plasma, oral, 400 mg): 2 h
- AUC [4, 6]: 42800 ng·h/mL
- AUC [4, 7]: 36000 ng·h/mL
- Cmax [4, 6]: 5400 ng/mL
- Cmax [4, 7]: 4300 ng/mL
- AUCnorm, geometric mean (% CV) [4, 8]: 7.5 (48.4) kg h/L
- C max,norm, geometric mean (% CV) [4, 8]: 1.0 (64.9) kg/L
- C trough, geometric mean (% CV) [4, 8]: 4.1 (73.6) mg/L
- C trough,norm, geometric mean (% CV) [4, 8]: 0.7 (85.4) kg/L
- AUCnorm, geometric mean (% CV) [4, 9]: 6.3 (69.8) kg h/L
- C max,norm, geometric mean (% CV) [4, 9]: 0.8 (72.5) kg/L
- C trough, geometric mean (% CV) [4, 9]: 3.2 (73.8) mg/L
- C trough,norm, geometric mean (% CV) [4, 9]: 0.6 (83.8) kg/L
- t max, median (range) [4, 9]: 2.00 (0–8.05) h
- Relationship between PK parameters (AUC(0–12), C max) and cardiovascular safety parameters (QT/QTc, LVEF, BP, HR) ([4]; sorafenib and its main metabolites, any time point, data not shown): No correlation; also recorded: No relationship was observed
